From ChEMBL document CHEMBL1201862, “PubChem BioAssay data set” (2004)
The source made the active and inactive calls.

Assays:
[1] = loss of viability in HepG2 cells – cell-based, CellTiter-Glo, cherry-picked, cytotoxicity control for Shn3 inhibitor project, dose response (AID 624134); type: functional
[2] = target: T1, Trace amine-associated receptor 1 (Homo sapiens, UniProt Q96RJ0); test: Fluorescence-based cell-based high throughput dose response assay to identify agonists of the human trace amine associated receptor 1 (TAAR1).; type: functional
T1 sequence (Q96RJ0 whole entry): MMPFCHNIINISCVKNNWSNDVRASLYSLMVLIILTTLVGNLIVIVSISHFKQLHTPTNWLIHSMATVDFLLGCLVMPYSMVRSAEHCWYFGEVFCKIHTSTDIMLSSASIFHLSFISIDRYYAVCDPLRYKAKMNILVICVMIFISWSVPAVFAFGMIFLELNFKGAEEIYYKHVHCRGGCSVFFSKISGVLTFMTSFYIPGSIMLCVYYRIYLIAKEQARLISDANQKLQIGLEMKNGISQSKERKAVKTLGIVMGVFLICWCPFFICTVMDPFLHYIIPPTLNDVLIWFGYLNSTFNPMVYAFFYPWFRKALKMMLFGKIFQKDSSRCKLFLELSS

[3] = non-specific 3'UTR reporter inhibition in Clone20-Shn3RL – cell-based, Renilla luciferase, cherry-picked, counter-screen for Shn3 inhibitor project, dose response (AID 624133); type: functional
[4] = reduction of Shn3 3'UTR-driven luciferase in osteoblasts – cell-based, Clone20 osteoblasts, firefly luciferase, cherry-picked, dose response (AID 624132); type: functional;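 note: firefly luciferase luminescence from reporter carrying the Shn3 3'UTR in osteoblasts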
[5] = cells; type: functional, cell-based
[6] = cells; type: functional, cell-based; remark: listed apart in the source
[7] = target: T1, Trace amine-associated receptor 1; test: Counterscreen for agonists of the human trace amine associated receptor 1 (hTAAR1): Fluorescence-based cell-based high throughput dose response assay to identify hTAAR1 agonist that also desensitize TAAR1 receptor response.; type: functional
[8] = target: T2, Ubiquitin-conjugating enzyme E2 N (Homo sapiens, UniProt P61088); type: functional;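 note: Dose-response confirmation in a TR-FRET assay detecting UBC13-driven polyubiquitin chain formation, inhibition measured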
T2 sequence (P61088 whole entry): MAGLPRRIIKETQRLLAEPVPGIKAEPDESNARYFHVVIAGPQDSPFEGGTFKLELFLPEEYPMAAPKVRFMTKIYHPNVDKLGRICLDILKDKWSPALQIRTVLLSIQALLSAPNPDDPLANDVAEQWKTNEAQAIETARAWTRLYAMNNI

[9] = tested on: INS1; test: INS-1E survival protection against cytokine death – cell-based, luminescence, retest, dose response (AID 449756); type: functional; conditions: Rattus norvegicus;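 note: cell death triggered by IL-1 beta plus TNF-alpha plus IFN-gamma mixture; protective hits raise ATP signal compared with cytokine alone wells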
[10] = off-target signal loss in HeLa-CEM21 co-culture – HeLa F-luc CTL cells, cherry-picked, counter-screen for HIV-1 Env fusion inhibitor project, dose response (AID 652040); type: functional, cell-based;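 note: potency for signal decrease marking cytotoxic or nonspecific inhibition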
[11] = blockers of HIV-1 ZM109 envelope-driven cell-cell fusion – HeLa effector, CEM target cells, luciferase, cherry-pick, dose response (AID 652058); type: functional, cell-based;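 note: luciferase signal from HIV-1 Env mediated cell-cell fusion of effector and target cells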
[12] = HIV-1 AD8 envelope cell-cell fusion blockers – cherry-pick, dose response (AID 652062); type: functional, cell-based;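 note: luciferase signal from cell-cell fusion driven by HIV-1 clade B AD8 Env; potency is for inhibitors of fusion seen as a drop in luminescence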
[13] = blockers of HIV-1 envelope-mediated cell-cell fusion – cherry-pick, dose response (AID 652057); type: functional, cell-based
[14] = luciferase reporter signal suppression in cells – H4 neuroglioma cells, luminescence, dose response (AID 1990); type: functional, cell-based
[15] = Luminescence Cell-Based Dose Response HTS to Identify Inhibitors of 5'UTR Stem-Loop Driven Prion Protein mRNA Translation in H4 Neuroglioblastoma Cells. [Related pubchem assays: 1827 (Project Summary), 1813 (Primary HTS)]; type: functional
[16] = alpha-synuclein stem-loop luciferase translation blockers – H4 neuroglioma cells, luminescence, confirmation (AID 1988); type: functional, cell-based
[17] = tested on: HeLa; test: ATP-based viability loss in HeLa cells – cell-based, CellTiter-Glo luminescence, cherry-pick samples, cytotoxicity control for MITF activator project, dose response (AID 540259); type: functional; conditions: Homo sapiens
[18] = tested on: HEK293; test: cells; type: functional, cell-based; conditions: Homo sapiens
[19] = target: T3, Nuclear receptor subfamily 0 group B member 1 (Homo sapiens, UniProt P51843); test: Luminescence-based cell-based high throughput dose response assay for inhibitors of the orphan nuclear receptor subfamily 0, group B, member 1 (DAX1; NR0B1). [Related pubchem assays (depositor defined):AID504766, AID504790]; type: functional
T3 sequence (P51843 whole entry): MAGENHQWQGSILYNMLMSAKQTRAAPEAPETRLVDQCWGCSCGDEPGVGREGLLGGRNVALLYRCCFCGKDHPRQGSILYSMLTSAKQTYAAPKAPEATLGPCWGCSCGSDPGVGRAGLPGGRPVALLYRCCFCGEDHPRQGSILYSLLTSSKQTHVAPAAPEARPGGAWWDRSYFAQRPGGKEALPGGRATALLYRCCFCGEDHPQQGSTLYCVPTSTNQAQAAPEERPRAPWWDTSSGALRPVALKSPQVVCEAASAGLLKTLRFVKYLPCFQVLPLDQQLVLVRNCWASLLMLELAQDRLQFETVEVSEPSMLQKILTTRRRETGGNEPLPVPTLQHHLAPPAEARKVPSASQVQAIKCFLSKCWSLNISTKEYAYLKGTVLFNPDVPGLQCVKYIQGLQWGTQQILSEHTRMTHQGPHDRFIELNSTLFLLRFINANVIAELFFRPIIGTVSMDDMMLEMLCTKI

[20] = target: Genome polyprotein (dengue virus type 2, UniProt P29990); test: flavivirus cap methylation enzyme inhibition – biochemical, confirmation dose response, primary screen (AID 588689); type: functional
[21] = DRD fibroblast viability loss – cell-based, non-viral oncogenic, luminescence, dose response (AID 1934); type: functional; conditions: Homo sapiens
[22] = tested on: BJ; test: BJ-TERT fibroblast viability loss – cell-based, RAS-independent, luminescence, dose response (AID 1933); type: functional; conditions: Homo sapiens
[23] = tested on: BJ; test: cells; type: functional, cell-based; conditions: Homo sapiens
[24] = tested on: BJ; test: BJ-TERT-LT-ST fibroblast viability loss – cell-based, RAS-independent, luminescence, dose response (AID 1935); type: functional; conditions: Homo sapiens;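 note: BJ fibroblasts immortalized with TERT plus LT and ST oncogenes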
[25] = target: T4, Hepatocyte nuclear factor 4-alpha (Homo sapiens, UniProt P41235); type: functional, cell-based;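 note: biochemical luminescence-based dose-response counterscreen measuring inhibition of HNF4 dimerization, run alongside a screen for blockers of ABHD5–perilipin-5 interaction; split luciferase complementation of HNF4 fusion proteins in cell lysate measuring dimerization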
T4 sequence (P41235 whole entry): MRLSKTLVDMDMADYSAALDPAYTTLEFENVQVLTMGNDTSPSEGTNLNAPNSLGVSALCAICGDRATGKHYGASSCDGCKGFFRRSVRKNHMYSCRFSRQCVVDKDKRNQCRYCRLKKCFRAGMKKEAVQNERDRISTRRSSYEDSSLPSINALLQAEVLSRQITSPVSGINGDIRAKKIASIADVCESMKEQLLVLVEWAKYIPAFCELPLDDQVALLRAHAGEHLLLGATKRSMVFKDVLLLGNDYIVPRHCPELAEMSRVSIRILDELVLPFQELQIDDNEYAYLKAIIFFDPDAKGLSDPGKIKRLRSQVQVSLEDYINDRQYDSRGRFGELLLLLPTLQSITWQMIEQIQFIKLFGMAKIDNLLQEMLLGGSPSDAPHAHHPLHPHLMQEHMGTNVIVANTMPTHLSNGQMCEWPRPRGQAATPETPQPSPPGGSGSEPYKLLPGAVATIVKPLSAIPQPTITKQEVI

[26] = viability of PTEN-deleted HCT116 cells – cell-based, HCT116 PTEN knockout, dose response (AID 1047); type: functional;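 note: HCT116 colon tumor cells with PTEN knocked out; cells exposed to compound for 60 hours before readout; potency for loss of cell viability measured by luminescence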
[27] = viability of HCT116 lacking mutant beta-catenin – cell-based, human colon tumor, dose response (AID 1045); type: functional;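 note: HCT116 colon tumor cells with beta catenin knocked out; cells exposed to compound for 60 hours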
[28] = target: T5, Rac GTPase-activating protein 1 (Homo sapiens, UniProt Q9H0H5); test: blockers of MgcRacGAP-driven Rac1 GTP hydrolysis – biochemical, ADP Hunter fluorescence, primary and confirmatory, confirmation (AID 624330); type: functional
T5 sequence (Q9H0H5 whole entry): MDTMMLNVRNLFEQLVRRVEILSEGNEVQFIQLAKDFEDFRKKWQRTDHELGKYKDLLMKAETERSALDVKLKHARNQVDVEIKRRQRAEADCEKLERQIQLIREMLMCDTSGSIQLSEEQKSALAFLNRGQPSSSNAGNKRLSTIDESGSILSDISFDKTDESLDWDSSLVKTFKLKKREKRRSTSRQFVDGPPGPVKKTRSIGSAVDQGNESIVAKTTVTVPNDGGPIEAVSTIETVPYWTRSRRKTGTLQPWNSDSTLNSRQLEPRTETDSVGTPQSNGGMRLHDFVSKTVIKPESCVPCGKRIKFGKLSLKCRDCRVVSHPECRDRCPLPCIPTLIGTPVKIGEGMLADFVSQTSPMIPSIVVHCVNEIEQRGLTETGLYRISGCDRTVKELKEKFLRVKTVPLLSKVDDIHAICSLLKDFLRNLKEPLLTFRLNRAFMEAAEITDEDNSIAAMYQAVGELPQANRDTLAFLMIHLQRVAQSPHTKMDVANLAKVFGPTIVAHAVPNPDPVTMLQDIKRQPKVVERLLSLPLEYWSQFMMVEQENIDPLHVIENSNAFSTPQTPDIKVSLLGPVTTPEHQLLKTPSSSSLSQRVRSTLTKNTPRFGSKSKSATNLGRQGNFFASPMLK

Genome polyprotein, sequence (P29990 2492-3391 limits assumed): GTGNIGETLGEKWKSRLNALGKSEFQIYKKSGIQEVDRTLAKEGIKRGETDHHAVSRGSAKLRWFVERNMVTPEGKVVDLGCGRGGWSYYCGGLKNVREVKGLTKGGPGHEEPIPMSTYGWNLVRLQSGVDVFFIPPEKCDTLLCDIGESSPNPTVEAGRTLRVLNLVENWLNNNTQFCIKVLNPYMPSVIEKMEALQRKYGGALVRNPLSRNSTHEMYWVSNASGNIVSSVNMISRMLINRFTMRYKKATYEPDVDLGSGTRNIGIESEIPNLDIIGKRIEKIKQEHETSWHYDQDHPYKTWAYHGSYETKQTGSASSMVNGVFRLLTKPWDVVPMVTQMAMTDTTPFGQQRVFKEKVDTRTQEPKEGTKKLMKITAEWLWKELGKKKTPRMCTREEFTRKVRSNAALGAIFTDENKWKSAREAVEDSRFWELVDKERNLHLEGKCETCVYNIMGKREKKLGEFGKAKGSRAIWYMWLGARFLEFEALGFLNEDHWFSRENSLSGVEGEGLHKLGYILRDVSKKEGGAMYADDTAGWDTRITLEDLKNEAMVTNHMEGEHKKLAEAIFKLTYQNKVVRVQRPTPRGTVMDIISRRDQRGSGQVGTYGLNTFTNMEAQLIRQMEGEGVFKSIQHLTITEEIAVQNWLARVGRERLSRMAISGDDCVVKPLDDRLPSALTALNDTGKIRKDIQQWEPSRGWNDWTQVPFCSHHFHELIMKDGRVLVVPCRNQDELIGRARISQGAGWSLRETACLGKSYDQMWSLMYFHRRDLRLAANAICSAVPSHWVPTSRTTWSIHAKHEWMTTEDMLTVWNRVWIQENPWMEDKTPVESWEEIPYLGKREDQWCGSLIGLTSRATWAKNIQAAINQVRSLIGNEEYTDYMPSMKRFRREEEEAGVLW

With `COc1ccc(Nc2nc(N3CCCC3)c3ccccc3n2)cc1` the AC50 [1] was 8.46 µM (active), the EC50 [2] was > 3.32 µM (active) and the AC50 [3] was 5.37 µM (active). For the same compound, the AC50 [4] was 3.67 µM (active), the EC50 [5] was > 29.9 µM (inactive) and the IC50 [6] was 19.7 µM (inactive). The IC50 [7] was 7.19 µM (active), the IC50 [8] was > 20 µM (inactive) and the AC50 [9] was 3.07 µM (active).
With `COc1cc(OCC(=O)NC(C)C)cc2c1C(=O)O[C@@H](C)CCCC(=O)CCCCC2` the AC50 [10] was 10.5 µM (active), the AC50 [11] was 6.68 µM (active) and the AC50 [12] was 26.4 µM (active). The AC50 [13] was 6.38 µM (active).
With `O=C(NCc1ccco1)c1ccc(Cn2c(=O)c3ccccc3n(Cc3cccc(F)c3)c2=O)cc1` the EC50 [14] was 15.1 µM (active), the AC50 [10] was 3.52 µM (active) and the EC50 [15] was > 120 µM (not active). The AC50 [11] was 5.5 µM (active), the EC50 [16] was 41.4 µM (active) and the AC50 [13] was 2.17 µM (active).
With `CN1CCSc2ccc(C(=O)Nc3cc(F)ccc3F)cc21` the AC50 [17] was 44.2 µM (active), the IC50 [18] was > 67.5 µM (inactive) and the IC50 [19] was > 67.5 µM (inactive).
In the case of `O=C(N[C@H](C(=O)N1CCC[C@H]1C(=O)NCCc1ccccc1Cl)C1CCCCC1)C1CC1`, the EC50 [2] is reported as 12.1 µM (inactive), the EC50 [5] is reported as > 29.9 µM (inactive) and the IC50 [6] is reported as > 29.9 µM (inactive). For the same compound, the IC50 [7] was 8.99 µM (active).
In the case of `O=C(O)c1ccccc1C(=O)c1ccc(Sc2ccc(Cl)cc2)c([N+](=O)[O-])c1`, the IC50 [20] is reported as 35.1 µM (active), the EC50 [21] is reported as > 150 µM (not active) and the EC50 [22] is reported as > 150 µM (not active). The EC50 [23] was > 150 µM (not active), the EC50 [24] was > 150 µM (not active) and the IC50 [18] was > 67.5 µM (inactive). The IC50 [19] was > 67.5 µM (inactive).
With `O=c1c(-c2ccco2)nc2ccccc2n1C(CCc1ccccc1)c1nc2ccccc2[nH]1` (stereo not given) the IC50 [25] was 2.54 µM (active).
With `Cn1nc(-c2ccc(Cl)cc2)c2cc(C(=O)NCCN3CCOCC3)sc21` the EC50 [26] was 22.4 µM (active), the EC50 [27] was 17 µM (active) and the IC50 [18] was > 67.5 µM (inactive). The IC50 [19] was > 67.5 µM (inactive).
With `O=C(/C(=C/c1ccccc1)n1cncn1)c1ccc(Cl)cc1Cl` the IC50 [25] was 3.22 µM (active) and the IC50 [28] was 150 µM (active).
